Assay results taken from US20210106582A1, “COMPOUNDS AND PHARMACEUTICAL COMPOSITIONS THEREOF FOR USE IN THE TREATMENT OF FIBROTIC DISEASES” (Galapagos NV, priority 2017, published 2021).
Where “and” joins values, the source holds several entries; their conditions need not be identical. Identical values can stand only once.

Experiments:
Format in all cases: in vivo
[1] = system: male C57BL/6 mice fed a Methionine and Choline-deficient (MCD) diet; assay: MCD model (methionine and choline deficient diet, NASH); conditions: individual animals, 30 mg/kg q.d. p.o., MCD diet 8 wk
Procedure: The methionine and choline deficient (MCD) diet model is used to produce a severe phenotype of NASH in […] (Santhekadur et al., 2017), and is used to evaluate the compounds of the invention.
At induction, 8 weeks-old male C57BL/6 mice (Janvier Labs, France) maintained at 22° C.±2° C. and humidity at 55%±10%, with a 12-hrs dark/light cycle are fed a standard diet (chow (A04C-10, Safe, France) or a Methionine and Choline-deficient (MCD) diet (EFTD.90262, Ssniff, Soest, Germany) for 8 weeks. All animals have access to filtered tap drinking water.
Four weeks after the induction, the animals are either assigned to a control-group or a test-group.
Test group animals are dosed with the a test compound, i.e. Compound A (CpdA) or Compound B (CpdB), at 30 mg/kg, q.d., p.o. formulated in methylcellulose 0.5%, 1 equivalent HCl. The control groups receives a similar volume of vehicle (10 mL/kg), i.e. the standard diet for control group 1 (C1) and the MCD diet for control group 2 (C2). Mice are randomly assigned to a treatment group according to their body weight in order to ensure a homogenous reparation.
After sacrifice (week 8), the activity of the test compound on the development of NASH is assessed by plasma ALT and AST levels and in liver by histopathological examination of fibrosis and steatosis (Sirius red, Oil Red O), collagen (OH-Pro) and triglycerides content and expression of fibrotic and inflammatory genes.
In addition, the NAS score is determined to further evaluate the compounds with respect to their effect on diet induced NASH. The nonalcoholic fatty liver disease activity scoring (NAS) has been proposed and accepted as a tool to measure changes in NAFLD during therapeutic trials (Brunt et al., 2011; Kleiner et al., 2005).
The NAS score (0-8) is defined as the sum of the steatosis score (0-3), lobular inflammation score (0-3), ballooning score (0-2). A NAS score of ≥5 is indicative of a NASH diagnostic.

[2] = system: male C57BL/6 mice fed CDAHF diet; assay: CDAHFD model (choline-deficient, L-amino acid-defined, high-fat diet); conditions: individual animals, CDAHFD 10W, 30 mg/kg q.d. p.o.
[3] = system: C57BL/6N male mice, bleomycin induced pulmonary fibrosis; assay: Therapeutic bleomycin induced pulmonary fibrosis 21-day mice model; conditions: individual animals, BLM, CpdA 30 mg/kg BID PO D7-D21
Procedure: The aim of the study is to test the efficacy of a test compound at three different doses in a 21-day model of bleomycin induced pulmonary fibrosis in mice.
11 week-old C57BL/6N male mice from Charles River (Italy) are maintained on 12 h light/dark cycle at 22° C. with ad libidum access to tap water and food.
On day 0, all mice in groups 2-4 receive a 1.5 U/kg oropharyngeal administration of bleomycin (BLM) to induce pulmonary fibrosis Animals in group 1 are not administered bleomycin, but instead receive a single dose of saline via the oropharyngeal route, and are considered sham control mice.
Animals are examined clinically twice daily. List of clinical signs and parameters are indicated in humane endpoints table. Animals are weighed daily starting from DO.
On day 21, lung functionality is determined. After deep anesthesia induced by an intraperitoneal injection (10 mL/kg) of a solution of xylazine (5 mg/kg) and ketamine (75 mg/kg), the trachea is exposed through midline incision and a cannula is inserted. Mice are ventilated with a tidal volume of 10 mL/kg at a frequency of 150 breaths/minute. FlexiVent (SCIREQ®) perturbations are performed three times. Deep Inflation and Pressure-Volume loops (PV loops) with stepwise increasing pressure are performed to measure the Inspiratory Capacity and stepwise pressure-driven perturbation (PVs-P). PV loops between 0 and 30 cm H2O are generated to obtain Total Lung Capacity (A). A snapshot perturbation maneuver is imposed, which is a threefold sinusoidal wave of in- and expiration controlled by the ventilator, resulting in resistance (Rrs), compliance (Crs), and elastance (Ers) of the whole respiratory system (airways, lung and chest wall). A value for each group is calculated with average FlexiVent-validated measurements recorded in each individual subject.
Then, two hours after the last dose of test substance and nintedanib, mice are sacrificed by anesthetic overdose. The lungs are excised and weighed individually. The lungs are then placed into marked bottles containing 10% buffered formalin for further histopathological evaluation.
Body weight data and lung weight data are processed using MS Excel. Statistical analysis and graphical presentation are performed using GraphPad Prism software (version 5.04).
For histopathological evaluation, whole lungs are embedded in paraffin and stained with Mallory's trichrome.
Pulmonary histological changes are assessed using Matsuse's modification of Ashcroft score (Ashcroft et al., 1988; Matsuse et al., 1999). Statistical analysis and graphical presentation is performed using GraphPad Prism software (version 5.04). Mann-Whitney test is employed.
Differences between groups are considered statistically significant when p<0.05.

O=c1nc(OC[C@@H]2COCCO2)cc2n1CCc1cc(C#CC3CC3)ccc1-2 [Compound A, 9-Cyclopropylethynyl-2-((S)-1-[1,4]dioxan-2-ylmethoxy)-6,7-dihydro-pyrimido[6,1-a]isoquinolin-4-one]
TIMP1 NRQ gene expression ([1]; NRQ scaled versus disease, Fig 8 Panel B): 1.0 and 1.1 and 0.4 (3×) and 0.8 and 0.9 and 0.1 and 0.5 and 2.3 | Col1a NRQ gene expression ([1]; dosing from week 4, Normalised Relative Quantity scaled versus disease, FIG. 8 Panel A): 0.3 and 0.8 (2×) and 1.0 and 0.5 and 0.1 and 0.4 and 2.1 and 0.6 and 2.4 | TNfα NRQ gene expression ([1]; liver, NRQ scaled versus disease, Fig 9 Panel A): 0.8 (3×) and 1.4 and 1.0 and 0.7 and 0.5 and 0.1 and 1.5 and 0.4 | CC12 NRQ gene expression ([1]; liver, NRQ scaled versus disease, Fig 9 Panel B): 0.5 (4×) and 1.2 and 0.6 (2×) and 0.7 and 0.2 and 1.0 | NAS scoring data ([1]; total NAS score (0-8), Fig 10): 7.0 (4×) and 6.0 (4×) and 5.0 and 8.0 | Col1a1 expression profiles (NRQ-scaled versus Disease-Vehicle) ([2]; Fig 12 panel A): 1.76 and 0.36 and 0.49 and 0.35 and 0.43 and 0.38 and 0.10 and 0.18 and 0.12 and 0.26 | TNFα expression profiles (NRQ-scaled versus Disease-Vehicle) ([2]; Figure 12 panel B): 0.53 (2×) and 0.89 and 0.77 and 0.46 and 0.67 and 0.80 and 0.64 and 0.97 and 0.59 | Fibrosis (Sirius red area %) ([2]; liver, Figure 11): 0.53% (2×) and 0.89% and 0.77% and 0.46% and 0.67% and 0.80% and 0.64% and 0.97% and 0.59% | Compliance of the Respiratory System ([3]; Figure 14 panel B): 0.034 mL/cmH2O and 0.030 mL/cmH2O and 0.035 mL/cmH2O and 0.037 mL/cmH2O and 0.036 mL/cmH2O and 0.033 mL/cmH2O and 0.041 mL/cmH2O (2×) and 0.031 mL/cmH2O and 0.038 mL/cmH2O and 0.046 mL/cmH2O and 0.042 mL/cmH2O | Elastance of the Respiratory System ([3]; Figure 14 panel C): 29.43 cmH2O/mL and 33.18 cmH2O/mL and 28.94 cmH2O/mL and 26.99 cmH2O/mL and 27.50 cmH2O/mL and 30.18 cmH2O/mL and 24.40 cmH2O/mL and 31.90 cmH2O/mL and 26.35 cmH2O/mL and 21.92 cmH2O/mL and 23.92 cmH2O/mL and 24.49 cmH2O/mL | Ashcroft Score ([3]; Matsuse's modification, Figure 13): 2.4 and 3.0 and 2.5 and 3.3 and 3.4 (2×) and 2.9 (2×) and 2.7 (2×) and 3.6 and 2.3 and 2.0 and 2.1 | Inspiratory Capacity ([3]; day 21 FlexiVent, Figure 14 panel A): 0.58 mL (2×) and 0.66 mL and 0.65 mL and 0.59 mL and 0.75 mL and 0.69 mL (2×) and 0.84 mL and 0.73 mL and 0.71 mL
